Test results from PubChem BioAssay AID280 (DTP/NCI, 2004).
Several values for one entry are separate records, joined by “and”; a condition that tells them apart may be missing. Equal entries are not always repeated. Toxic doses and inconclusive results are not listed.

System: nude mice, LOX melanoma ip, survival T/C
Assay: NCI In Vivo Anticancer Drug Screen. Data for tumor model Human Amelanotic Melanoma (LOX) (intraperitoneal) in NU/NU BALB/C (nude) mice
Details: endpoint: median survival time, higher = longer survival
Protocol: The antitumor activity of compounds was measured in mice bearing transplantable tumors. Survival or tumor size were measured and the results are expressed as the measurement made in the treated group (T) divided by the measurement made in the vehicle treated control group (C). The tumor model used in this assay is Human Amelanotic Melanoma (LOX) (intraperitoneal) in NU/NU BALB/C (nude) mice

[1] = dose: 37.5 mg/kg/injection, schedule: Q04DX003 (ip), vehicle: saline with Tween-80
[2] = dose: 75.0 mg/kg/injection, schedule: Q04DX003 (ip), vehicle: saline with Tween-80
[3] = dose: 300.0 mg/kg/injection, schedule: Q04DX003 (ip), vehicle: saline with Tween-80
[4] = dose: 150.0 mg/kg/injection, schedule: Q04DX003 (ip), vehicle: saline with Tween-80
[5] = dose: 6.25 mg/kg/injection, schedule: Q04DX003 (ip), vehicle: saline with Tween-80
[6] = dose: 12.5 mg/kg/injection, schedule: Q04DX003 (ip), vehicle: saline with Tween-80
[7] = dose: 25.0 mg/kg/injection, schedule: Q04DX003 (ip), vehicle: saline with Tween-80
[8] = dose: 50.0 mg/kg/injection, schedule: Q04DX003 (ip), vehicle: saline with Tween-80
[9] = dose: 100.0 mg/kg/injection, schedule: Q04DX003 (ip), vehicle: saline with Tween-80
[10] = dose: 200.0 mg/kg/injection, schedule: Q04DX003 (ip), vehicle: saline with Tween-80
[11] = dose: 400.0 mg/kg/injection, schedule: Q04DX003 (ip), vehicle: saline with Tween-80

In the case of `CC(=O)O[C@H]1C(=O)[C@@]2(C)C(C(OC(=O)c3ccccc3)[C@]3(O)C[C@H](OC(=O)C(OC(=O)CCCC(=O)NCCCN(C)C)C(NC(=O)c4ccccc4)c4ccccc4)C(C)=C1C3(C)C)C1(OC(C)=O)COC1C[C@@H]2O` (stereo not given in full), the T/C (dose: 2.5 mg/kg/injection, schedule: Q01DX009 (ip), vehicle: water) is reported as 155 % of control, the T/C (dose: 5.0 mg/kg/injection, schedule: Q01DX009 (ip), vehicle: water) is reported as 156 % of control and the T/C (dose: 10.0 mg/kg/injection, schedule: Q01DX009 (ip), vehicle: water) is reported as 157 % of control and 225 % of control. The T/C (dose: 20.0 mg/kg/injection, schedule: Q01DX009 (ip), vehicle: water) was 205 % of control and 310 % of control.
In the case of `CO[C@H](/C(C)=C/C=C/C(C)=C/c1coc(C)n1)[C@H](C)[C@H]1C[C@@H](O)[C@@]2(C)O[C@H]2/C=C/[C@@H](C)[C@@H]2C[C@@H](CC(=O)O2)C[C@H]2O[C@@H]2C(=O)O1`, the T/C (dose: 0.09 mg/kg/injection, schedule: Q01DX009 (ip), vehicle: other) is reported as 176 % of control, the T/C (dose: 0.12 mg/kg/injection, schedule: Q04DX003 (ip), vehicle: other) is reported as 121 % of control and the T/C (dose: 0.13 mg/kg/injection, schedule: Q01DX009 (ip), vehicle: other) is reported as 180 % of control. For the same molecule, the T/C (dose: 0.2 mg/kg/injection, schedule: Q01DX009 (ip), vehicle: other) was 175 % of control, the T/C (dose: 0.2 mg/kg/injection, schedule: Q04DX003 (ip), vehicle: other) was 108 % of control and the T/C (dose: 0.3 mg/kg/injection, schedule: Q01DX009 (ip), vehicle: other) was 152 % of control and 196 % of control. For the same molecule, the T/C (dose: 0.44 mg/kg/injection, schedule: Q01DX009 (ip), vehicle: other) was 162 % of control, the T/C (dose: 0.55 mg/kg/injection, schedule: Q04DX003 (ip), vehicle: other) was 122 % of control and the T/C (dose: 0.66 mg/kg/injection, schedule: Q01DX009 (ip), vehicle: other) was 93 % of control.
With `c1ccc(OCC2CO2)c(OCC2CO2)c1` (stereo not given) the T/C [1] was 118 % of control, the T/C [2] was 109 % of control and the T/C [3] was 265 % of control.
`CCCCCCCCCCCCCCCCCCOCC(CO)OC` (stereo not given) was tested, and the T/C [4] was 150 % of control and 151 % of control and the T/C [3] was 160 % of control.
`COC1=CCC23C(=O)C=CC(=O)C2(C1)C(=O)c1ccccc1C3=O` (stereo not given) was tested, and the T/C [5] was 101 % of control, the T/C [6] was 100 % of control and the T/C [7] was 94 % of control.
With `O=C(/C=C/c1cccnc1)/C=C/c1cccnc1` the T/C (dose: 6.25 mg/kg/injection, schedule: Q04DX003 (ip), vehicle: Klucel (hydroxypropylcellulose) (HPC)) was 104 % of control, the T/C (dose: 12.5 mg/kg/injection, schedule: Q04DX003 (ip), vehicle: Klucel (hydroxypropylcellulose) (HPC)) was 105 % of control and the T/C (dose: 25.0 mg/kg/injection, schedule: Q04DX003 (ip), vehicle: Klucel (hydroxypropylcellulose) (HPC)) was 111 % of control. The T/C (dose: 50.0 mg/kg/injection, schedule: Q04DX003 (ip), vehicle: Klucel (hydroxypropylcellulose) (HPC)) was 116 % of control and the T/C (dose: 100.0 mg/kg/injection, schedule: Q04DX003 (ip), vehicle: Klucel (hydroxypropylcellulose) (HPC)) was 88 % of control.
With `[NH-]C(CCC(N)=O)C(=O)O.[NH-]C(CCC(N)=O)C(=O)O.[Zn+2]` (stereo not given) the T/C [6] was 94 % of control, the T/C [7] was 94 % of control and the T/C [8] was 118 % of control.
With `O=C(C/C(=N\C(=S)Nc1cc(C(F)(F)F)ccc1Cl)NO)N1CCCC1` the T/C [8] was 115 % of control, the T/C [9] was 96 % of control and the T/C [10] was 108 % of control.
In the case of `O=C(/C=C/c1ccccc1)c1ccccc(=O)c1O`, the T/C (dose: 6.85 mg/kg/injection, schedule: Q04DX003 (ip), vehicle: Klucel (hydroxypropylcellulose) (HPC)) is reported as 100 % of control, the T/C (dose: 13.7 mg/kg/injection, schedule: Q04DX003 (ip), vehicle: Klucel (hydroxypropylcellulose) (HPC)) is reported as 97 % of control and the T/C (dose: 27.5 mg/kg/injection, schedule: Q04DX003 (ip), vehicle: Klucel (hydroxypropylcellulose) (HPC)) is reported as 104 % of control. For the same molecule, the T/C (dose: 55.0 mg/kg/injection, schedule: Q04DX003 (ip), vehicle: Klucel (hydroxypropylcellulose) (HPC)) was 108 % of control and the T/C (dose: 110.0 mg/kg/injection, schedule: Q04DX003 (ip), vehicle: Klucel (hydroxypropylcellulose) (HPC)) was 94 % of control.
In the case of `CCC(c1ccc(O)cc1)C(CC)c1ccc(OCCN)cc1` (stereo not given), the T/C (dose: 62.5 mg/kg/injection, schedule: Q04DX003 (ip), vehicle: saline with Tween-80) is reported as 88 % of control, the T/C (dose: 125.0 mg/kg/injection, schedule: Q04DX003 (ip), vehicle: saline with Tween-80) is reported as 104 % of control and the T/C (dose: 250.0 mg/kg/injection, schedule: Q04DX003 (ip), vehicle: saline with Tween-80) is reported as 93 % of control. For the same molecule, the T/C (dose: 500.0 mg/kg/injection, schedule: Q04DX003 (ip), vehicle: saline with Tween-80) was 92 % of control and the T/C (dose: 1000.0 mg/kg/injection, schedule: Q04DX003 (ip), vehicle: saline with Tween-80) was 93 % of control.
For `Cc1ccc(C(=O)NC2C(=O)NC(C(C)C)C(=O)N3CCCC3C(=O)N(C)CC(=O)N(C)C(C(C)C)C(=O)OC2C)c2c1Oc1c(c(C(=O)NC3C(=O)NC(C(C)C)C(=O)N4CCCC4C(=O)N(C)CC(=O)N(C)C(C(C)C)C(=O)OC3C)c3nc(-c4ccccc4)c(=O)oc3c1C)N2` (stereo not given), the T/C (dose: 0.25 mg/kg/injection, schedule: Q04DX003 (ip), vehicle: saline with Tween-80) was 159 % of control, the T/C (dose: 0.5 mg/kg/injection, schedule: Q04DX003 (ip), vehicle: saline with Tween-80) was 161 % of control and the T/C (dose: 1.0 mg/kg/injection, schedule: Q04DX003 (ip), vehicle: saline with Tween-80) was 224 % of control. For the same molecule, the T/C (dose: 2.0 mg/kg/injection, schedule: Q04DX003 (ip), vehicle: saline with Tween-80) was 295 % of control and the T/C (dose: 4.0 mg/kg/injection, schedule: Q04DX003 (ip), vehicle: saline with Tween-80) was 301 % of control.
`O=CC(O)C(O)C(O)C(O)CO` (stereo not given) was tested, and the T/C (dose: 75.0 mg/kg/injection, schedule: Q04DX003 (ip), vehicle: saline) was 112 % of control and 99 % of control, the T/C (dose: 150.0 mg/kg/injection, schedule: Q04DX003 (ip), vehicle: saline) was 107 % of control and 98 % of control and the T/C (dose: 300.0 mg/kg/injection, schedule: Q04DX003 (ip), vehicle: saline) was 102 % of control and 106 % of control. For the same molecule, the T/C (dose: 600.0 mg/kg/injection, schedule: Q04DX003 (ip), vehicle: saline) was 95 % of control and the T/C (dose: 1200.0 mg/kg/injection, schedule: Q04DX003 (ip), vehicle: saline) was 98 % of control and 99 % of control.
For `c1ccc([Te][Te]c2ccccc2)cc1`, the T/C [1] was 102 % of control, the T/C [2] was 92 % of control and the T/C [4] was 112 % of control.
For `COc1cc2c(c(OC)c1O)-c1ccc(OC)c(=O)cc1[C@@H](NC(=O)C(F)(F)F)CC2`, the T/C (dose: 2.5 mg/kg/injection, schedule: Q04DX003 (ip), vehicle: Klucel (hydroxypropylcellulose) (HPC)) was 122 % of control.
`C/C(=N\NC(=S)N1CC2CCC(CC2)C1)c1cccc(C)n1` was tested, and the T/C [5] was 105 % of control, the T/C [6] was 109 % of control and the T/C [7] was 103 % of control. The T/C [8] was 120 % of control and the T/C [9] was 109 % of control.
`CC1OC2CC(O)C1(O)C1=C2C(O)=C(C(N)=O)C(=N)C1=O` (stereo not given) was tested, and the T/C (dose: 0.32 mg/kg/injection, schedule: Q04DX003 (ip), vehicle: saline + Tween-80 + alcohol) was 106 % of control, the T/C (dose: 0.63 mg/kg/injection, schedule: Q04DX003 (ip), vehicle: saline + Tween-80 + alcohol) was 99 % of control and the T/C (dose: 1.25 mg/kg/injection, schedule: Q04DX003 (ip), vehicle: saline + Tween-80 + alcohol) was 106 % of control. For the same molecule, the T/C (dose: 2.5 mg/kg/injection, schedule: Q04DX003 (ip), vehicle: saline + Tween-80 + alcohol) was 102 % of control and the T/C (dose: 5.0 mg/kg/injection, schedule: Q04DX003 (ip), vehicle: saline + Tween-80 + alcohol) was 102 % of control.
In the case of `NCCSC(C[N+](=O)[O-])c1ccccc1Cl` (stereo not given), the T/C (dose: 12.5 mg/kg/injection, schedule: Q04DX003 (ip), vehicle: saline) is reported as 107 % of control, the T/C (dose: 25.0 mg/kg/injection, schedule: Q04DX003 (ip), vehicle: saline) is reported as 115 % of control and the T/C (dose: 50.0 mg/kg/injection, schedule: Q04DX003 (ip), vehicle: saline) is reported as 96 % of control.
`NC(=S)c1ncn(C2OC(COC=O)C(OC=O)C2OC=O)c1NC=O` (stereo not given) was tested, and the T/C [8] was 109 % of control, the T/C [10] was 172 % of control and the T/C [11] was 188 % of control.
For `NC(=O)c1[nH]cnc1O`, the T/C [8] was 95 % of control and 98 % of control, the T/C [9] was 116 % of control and 100 % of control and the T/C [10] was 104 % of control and 111 % of control. For the same molecule, the T/C [11] was 96 % of control and the T/C (dose: 800.0 mg/kg/injection, schedule: Q04DX003 (ip), vehicle: saline with Tween-80) was 88 % of control.
For `N/C(=N/N=C/c1cc(Br)cc(Br)c1O)NO`, the T/C (dose: 25.0 mg/kg/injection, schedule: Q04DX003 (ip), vehicle: suspension in saline) was 98 % of control, the T/C (dose: 50.0 mg/kg/injection, schedule: Q04DX003 (ip), vehicle: suspension in saline) was 96 % of control and the T/C (dose: 100.0 mg/kg/injection, schedule: Q04DX003 (ip), vehicle: suspension in saline) was 86 % of control.
